# Assay results reported in US11925624B2, “Methods of administering anti-fibrotic therapy” (GENENTECH, INC., priority 2016, dated 2024).
# “And” between values parts separate entries of the source, which are not always exact repeats. Identical values can stand only once. Like-named read-outs stand apart in the source and are kept apart here.
# Assay: Phase 1 multiple ascending dose (Part B) pharmacokinetics after low-fat meal
# Assay type: in vivo, human
# Conditions: for Tmax: median; for AUC: read-out: AUC0-τ; for CL renal: urine and plasma
# Method: In Part B, 24 subjects were studied in 3 groups (Groups B1 to B3), with each group consisting of 8 subjects (6 received Compound I and 2 received placebo). The dose, dosing frequency, duration, and dietary state for Part B were determined based on review of available PK, safety, and tolerability data from Parts A and B.
# All doses in Part B were administered following administration of a low-fat meal. In Groups B1 and B3, Compound I (200 mg for Group B1, 275 mg for Group B3) or placebo was administered twice daily (BID) on Days 1 to 6 and once on the morning of Day 7. In Group B2, subjects received QD dosing with 525 mg Compound I or placebo on Days 1 to 7.
# In Part B, each subject participated in 1 treatment period. Subjects resided at the CRU from Day −1 (the day before dosing) until the morning of Day 10 (72 hours after the final dose on Day 7). All subjects returned for a Follow-up visit between 5 to 14 days after their final dose.
# In Part B, all doses were administered after a low-fat meal. On Day 1 and Day 7 (days with post-dose PK sampling), subjects started a low-fat breakfast 30 minutes prior to dosing and were given 15 minutes to complete their meal; dosing occurred approximately 15 minutes after completion of breakfast. On dosing Days 2 through 6, subjects were to complete their breakfast within an hour prior to dosing. For the evening doses, subjects were given a standard meal and completed their meal between 1 and 2 hours prior to dosing.
# [1] = 200 mg BID (B1), Day 1, low-fat meal
# [2] = 200 mg BID (B1), Day 7, low-fat meal
# [3] = 275 mg BID (B3), Day 1, low-fat meal
# [4] = 275 mg BID (B3), Day 7, low-fat meal
# [5] = 525 mg QD (B2), Day 1, low-fat meal
# [6] = 525 mg QD (B2), Day 7, low-fat meal
# [7] = human, plasma, oral, 200 mg, 200 mg BID (B1), Day 1, low-fat meal
# [8] = human, plasma, oral, 200 mg, 200 mg BID (B1), Day 7, low-fat meal
# [9] = human, plasma, oral, 275 mg, 275 mg BID (B3), Day 1, low-fat meal
# [10] = human, plasma, oral, 275 mg, 275 mg BID (B3), Day 7, low-fat meal
# [11] = human, plasma, oral, 525 mg, 525 mg QD (B2), Day 1, low-fat meal
# [12] = human, plasma, oral, 525 mg, 525 mg QD (B2), Day 7, low-fat meal
# [13] = human, plasma, oral, 200 mg BID (B1), Day 7, low-fat meal
# [14] = human, plasma, oral, 275 mg BID (B3), Day 7, low-fat meal
# [15] = human, plasma, oral, 525 mg QD (B2), Day 7, low-fat meal
smiles,measurement,setting,value
Cn1cc(-c2cn(-c3ccc(OC(F)(F)F)cc3)c(=O)c3ncn(C)c23)cn1 [Compound I],AUC0-τ(norm),[1],11300 hr*ng/mL/(mg/kg)
same,Ae0-12,[1],105 mg
same,Cmax (norm),[1],1970 ng/mL/(mg/kg)
same,fe0-12,[1],52.5%
same,AUC0-τ(norm),[2],12600 hr*ng/mL/(mg/kg)
same,Ae0-12,[2],142 mg
same,CL/F,[2],85.9 mL/min
same,CL/F(norm),[2],1.32 (mL/min)/kg
same,Cmax (norm),[2],1970 ng/mL/(mg/kg)
same,RAAUC (accumulation ratio based on AUC0-τ),[2],1.1 and 1.11
same,fe0-12,[2],71.2%
same,λZ,[2],0.142 h⁻¹
same,Mean pre-dose (trough) Compound I concentration,"200 mg BID, Day 7",1680 ng/mL
same,AUC0-τ(norm),[3],9560 hr*ng/mL/(mg/kg)
same,Ae0-12,[3],162 mg
same,Cmax (norm),[3],1540 ng/mL/(mg/kg)
same,fe0-12,[3],58.9%
same,AUC0-τ(norm),[4],14300 hr*ng/mL/(mg/kg)
same,Ae0-12,[4],190 mg
same,CL/F,[4],81.1 mL/min
same,CL/F(norm),[4],1.16 (mL/min)/kg
same,Cmax (norm),[4],1900 ng/mL/(mg/kg)
same,RAAUC (accumulation ratio based on AUC0-τ),[4],1.5
same,fe0-12,[4],69.1%
same,λZ,[4],0.123 h⁻¹
same,Fold increase in geometric mean Cmax,275 mg BID vs 200 mg BID (1.4-fold increase in dose),1.2 fold
same,Mean pre-dose (trough) Compound I concentration,"275 mg BID, Day 7",3260 ng/mL
same,AUC0-τ(norm),[5],10500 hr*ng/mL/(mg/kg)
same,Ae0-12,[5],171 mg
same,Ae0-24,[5],242 mg
same,Cmax (norm),[5],1140 ng/mL/(mg/kg)
same,fe0-12,[5],32.6%
same,fe0-24,[5],46.1%
same,AUC0-τ(norm),[6],13100 hr*ng/mL/(mg/kg)
same,Ae0-12,[6],185 mg
same,Ae0-24,[6],284 mg
same,CL/F,[6],89.4 mL/min
same,CL/F(norm),[6],1.27 (mL/min)/kg
same,Cmax (norm),[6],1260 ng/mL/(mg/kg)
same,RAAUC (accumulation ratio based on AUC0-τ),[6],1.3 and 1.25
same,fe0-12,[6],35.3%
same,fe0-24,[6],54.0%
same,λZ,[6],0.0544 h⁻¹
same,Fold increase in geometric mean AUC0-∞,525 mg QD vs 200 mg BID (2.6-fold increase in dose),2.5 fold
same,Mean pre-dose (trough) Compound I concentration,"525 mg QD, Day 7",897 ng/mL
same,Time to steady-state plasma concentrations,200 and 275 mg BID and 525 mg QD,≤ 2 days
same,Tmax at 1 day,"human, plasma, oral, 200 mg BID, 275 mg BID, 525 mg QD, Day 1, read-out: Median tmax, range across regimens",2.3 to 3.5 h
same,Tmax at 7 day,"human, plasma, oral, 200 mg BID, 275 mg BID, 525 mg QD, Day 7, read-out: Median tmax, range across regimens",2.8 to 4 h
same,Cmax,[7],6080 ng/mL
same,Tmax,[7],3 h
same,AUC,[7],34900 ng·h/mL
same,Cmax,[8],6060 ng/mL
same,Tmax,[8],4 h
same,AUC,[8],38800 ng·h/mL
same,Cmax,[9],6070 ng/mL
same,Tmax,[9],2.28 h
same,AUC,[9],37700 ng·h/mL
same,Cmax,[10],7500 ng/mL
same,Tmax,[10],2.75 h
same,AUC,[10],56500 ng·h/mL
same,Cmax,[11],8510 ng/mL
same,Tmax,[11],3.5 h
same,AUC,[11],78100 ng·h/mL
same,Cmax,[12],9440 ng/mL
same,Tmax,[12],3.53 h
same,AUC,[12],97800 ng·h/mL
same,half-life,[13],4.89 h
same,half-life at 7 day,[13],4.9 h
same,Vd/F,"human, plasma, oral, 200 mg BID (B1), Day 7, low-fat meal, read-out: Vz/F",36.1 L
same,Vd/F,"human, plasma, oral, 200 mg BID (B1), Day 7, low-fat meal, read-out: Vz/F(norm)",0.576 L/kg
same,half-life,[14],5.64 h
same,half-life at 7 day,[14],5.6 h
same,Vd/F,"human, plasma, oral, 275 mg BID (B3), Day 7, low-fat meal, read-out: Vz/F",39.6 L
same,Vd/F,"human, plasma, oral, 275 mg BID (B3), Day 7, low-fat meal, read-out: Vz/F(norm)",0.568 L/kg
same,half-life,[15],6.25 h
same,half-life at 7 day,[15],6.3 h
same,Vd/F,"human, plasma, oral, 525 mg QD (B2), Day 7, low-fat meal, read-out: Vz/F",98.6 L
same,Vd/F,"human, plasma, oral, 525 mg QD (B2), Day 7, low-fat meal, read-out: Vz/F(norm)",1.4 L/kg
same,CL renal,"human, oral, 200 mg, 200 mg BID (B1), Day 1, low-fat meal",50.2 mL/min
same,CL renal,"human, oral, 200 mg, 200 mg BID (B1), Day 7, low-fat meal",61.2 mL/min
same,CL renal,"human, oral, 275 mg, 275 mg BID (B3), Day 1, low-fat meal",71.6 mL/min
same,CL renal,"human, oral, 275 mg, 275 mg BID (B3), Day 7, low-fat meal",56.1 mL/min
same,CL renal,"human, oral, 525 mg, 525 mg QD (B2), Day 1, low-fat meal",51.7 mL/min
same,CL renal,"human, oral, 525 mg, 525 mg QD (B2), Day 7, low-fat meal",48.3 mL/min
